Read-outs that look alike come from different tables or passages of the source.

A word on the inhibition: it is the percentage by which the read-out fell short of the control.

The assay has as its system C. elegans. Kind of assay: microbe, parasite or virus in culture. The note with it: Caenorhabditis elegans.
Setting [1] is: 0 h, read-out: Percentage of motility inhibition 0 h, Table S2, C. elegans SS assay, 110 μM, 0 h, averages of 4 data points.
Where [2] appears, read: 24 h, read-out: Percentage of motility inhibition 24 h, Table S2, C. elegans SS assay, 110 μM, 24 h, averages of 4 data points.
The mark [3] stands for this setting: 0 h, read-out: Percentage of motility inhibition 0 h.
Setting [4] is: 24 h, read-out: Percentage of motility inhibition 24 h.

In the case of `C/C=C(\C)C(=O)N[C@@H](c1ccccc1)[C@@H](O)C(=O)O[C@H]1C[C@@]2(O)[C@@H](OC(=O)c3ccccc3)[C@@H]3[C@]4(OC(C)=O)CO[C@@H]4C[C@H](O)[C@@]3(C)C(=O)[C@H](OC(C)=O)C(=C1C)C2(C)C` [Cephalomannine], the inhibition at 110 µM by setting is: under setting [1], 31%; under setting [2], 34%.

Take `COC1=C[C@]23CCCN2CCc2cc4c(cc2[C@@H]3[C@@H]1O)OCO4` [Cephalotaxine]: the inhibition at 110 µM is, setting by setting: under setting [1], 0%; under setting [2], 0%.

For the molecule `CN1Cc2c(ccc3c2OCO3)[C@@H]2[C@H]1c1cc3c(cc1C[C@@H]2O)OCO3` [Chelidonine], the inhibition at 110 µM by setting is: under setting [1], 0%; under setting [2], 0%.

`C[C@H](CCC(=O)O)[C@H]1CC[C@H]2[C@@H]3[C@H](O)C[C@@H]4C[C@H](O)CC[C@]4(C)[C@H]3CC[C@]12C` [Chenodeoxycholic Acid]: the inhibition at 110 µM by setting is: under setting [1], 0%; under setting [2], 5%.

`CC1(C)CC[C@]2(C(=O)O[C@@H]3O[C@H](CO)[C@@H](O)[C@H](O)[C@H]3O)CC[C@]3(C)C(=CC[C@@H]4[C@@]5(C)CC[C@H](O[C@@H]6O[C@H](C(=O)O)[C@@H](O)[C@H](O)[C@H]6O)C(C)(C)[C@@H]5CC[C@]43C)[C@@H]2C1` [Chikusetsusaponin Iva]: the inhibition at 110 µM runs as follows: under setting [1], 5%; under setting [2], 14%.

For `O=C(N[C@H](CO)[C@H](O)c1ccc([N+](=O)[O-])cc1)C(Cl)Cl` [Chloramphenicol], the inhibition at 110 µM stood at 6% under setting [1] and 2% under setting [2].

Turning to `[H]/N=C(\N/C(=N/[H])NCCCCCCNC(=N)NC(=N)Nc1ccc(Cl)cc1)Nc1ccc(Cl)cc1` [Chlorhexidine], the inhibition at 110 µM runs as follows: under setting [1], 38%; under setting [2], 63%.

Regarding `Oc1c(Cl)cc(Cl)c2cccnc12` [Chloroxine], the inhibition at 110 µM by setting is: under setting [1], 43%; under setting [2], 34%.

Regarding `Cc1ccc2c(Cl)cc(Cl)c(O)c2n1` [Chlorquinaldol], the inhibition at 110 µM under setting [1] was 19% and the inhibition at 110 µM under setting [2] amounted to 38%.

Turning to `CC(C)CCC[C@@H](C)[C@H]1CC[C@H]2[C@@H]3CC=C4C[C@@H](O)CC[C@]4(C)[C@H]3CC[C@]12C` [Cholesterol], the inhibition at 110 µM reads like this: under setting [1], 24%; under setting [2], 17%.

In the case of `C[C@H](CCC(=O)O)[C@H]1CC[C@H]2[C@@H]3[C@H](O)C[C@@H]4C[C@H](O)CC[C@]4(C)[C@H]3C[C@H](O)[C@]12C` [Cholic acid], the inhibition at 110 µM runs as follows: under setting [3], 0%; under setting [4], 8%.

As to `O=c1cc(-c2ccccc2)oc2cc(O)cc(O)c12` [Chrysin], the inhibition at 110 µM reads like this: under setting [1], 15%; under setting [2], 0%.

Turning to `COc1cc(-c2cc(=O)c3c(O)cc(O)cc3o2)ccc1O` [Chrysoeriol], the inhibition at 110 µM was 18% under setting [1] and 1% under setting [2].

As to `Cc1cc(C2CCCCC2)n(O)c(=O)c1` [Ciclopirox], the inhibition at 110 µM under setting [1] turned out to be 42% and the inhibition at 110 µM under setting [2] was determined as 41%.

Regarding `Nc1ccn(C[C@@H](CO)OCP(=O)(O)O)c(=O)n1` [Cidofovir], the inhibition at 110 µM amounted to 15% under setting [1] and 3% under setting [2].

Consider `C=C[C@H]1CN2CC[C@H]1C[C@H]2[C@H](O)c1ccnc2ccccc12` [Cinchonidine], for which the inhibition at 110 µM is 0% under setting [1] and 0% under setting [2].

Regarding `C=C[C@H]1C[N@@]2CC[C@H]1C[C@@H]2[C@@H](O)c1ccnc2ccccc12` [Cinchonine], the inhibition at 110 µM reads like this: under setting [1], 6%; under setting [2], 0%.

Take `O=C(O)c1cn(C2CC2)c2cc(N3CCNCC3)c(F)cc2c1=O` [Ciprofloxacin]: the inhibition at 110 µM under setting [1] came out at 33% and the inhibition at 110 µM under setting [2] is 2%.

Consider `C[N+](C)(C)CCOP(=O)(O)OP(=O)([O-])OC[C@H]1O[C@@H](n2ccc(N)nc2=O)[C@H](O)[C@@H]1O` [Citicoline], for which the inhibition at 110 µM is, setting by setting: under setting [1], 0%; under setting [2], 0%.

Consider `O=C(O)CC(O)(CC(=O)O)C(=O)O` [Citric acid], for which the inhibition at 110 µM reads like this: under setting [1], 0%; under setting [2], 18%.

On to `CC(C)=CCCC(C)CCO` (stereo not drawn) [Citronellol], for which the inhibition at 110 µM under setting [1] was 15% and the inhibition at 110 µM under setting [2] was found to be 28%.

For `CC[C@H]1OC(=O)[C@H](C)[C@@H](O[C@H]2C[C@@](C)(OC)[C@@H](O)[C@H](C)O2)[C@H](C)[C@@H](O[C@@H]2O[C@H](C)C[C@H](N(C)C)[C@H]2O)[C@](C)(OC)C[C@@H](C)C(=O)[C@H](C)[C@@H](O)[C@]1(C)O` [Clarithromycin], the inhibition at 110 µM is, setting by setting: under setting [1], 12%; under setting [2], 10%.

Turning to `Cc1cn([C@H]2O[C@@H](CO)[C@H](O)[C@H]2F)c(=O)[nH]c1=O` [Clevudine], the inhibition at 110 µM runs as follows: under setting [1], 2%; under setting [2], 0%.

Turning to `CC(C)(C)C(=O)C(Oc1ccc(Cl)cc1)n1ccnc1` (stereo not drawn) [Climbazole], the inhibition at 110 µM under setting [1] was 53% and the inhibition at 110 µM under setting [2] was 2%.

`Oc1c(I)cc(Cl)c2cccnc12` [Clioquinol]: the inhibition at 110 µM is 23% under setting [1] and 0% under setting [2].

`CC(C)/N=c1\cc2n(-c3ccc(Cl)cc3)c3ccccc3nc-2cc1Nc1ccc(Cl)cc1` [Clofazimine]: the inhibition at 110 µM runs as follows: under setting [1], 6%; under setting [2], 7%.

Turning to `CC(C)(C)CC(C)(C)c1ccc(O)c(Cc2ccc(Cl)cc2Cl)c1` [Clofoctol], the inhibition at 110 µM under setting [1] was 37% and the inhibition at 110 µM under setting [2] is 44%.

On to `Cc1nc(C)c(Cl)c(O)c1Cl` [Clopidol], for which the inhibition at 110 µM reads like this: under setting [1], 7%; under setting [2], 11%.

Turning to `Nc1cc(C(Cl)=C(Cl)Cl)c(S(N)(=O)=O)cc1S(N)(=O)=O` [Clorsulon], the inhibition at 110 µM is, setting by setting: under setting [1], 12%; under setting [2], 5%.

In the case of `Cc1cc(C(C#N)c2ccc(Cl)cc2)c(Cl)cc1NC(=O)c1cc(I)cc(I)c1O` (stereo not drawn) [Closantel], the inhibition at 110 µM runs as follows: under setting [1], 4%; under setting [2], 48%.

As to `Clc1ccccc1C(c1ccccc1)(c1ccccc1)n1ccnc1` [Clotrimazole], the inhibition at 110 µM by setting is: under setting [1], 6%; under setting [2], 0%.

As to `Oc1ccc(Cl)c2cccnc12` [Cloxiquine], the inhibition at 110 µM under setting [1] came out at 40% and the inhibition at 110 µM under setting [2] amounted to 19%.

As to `COc1cc2c(c(OC)c1OC)-c1ccc(OC)c(=O)cc1[C@@H](NC(C)=O)CC2` [Colchicine], the inhibition at 110 µM under setting [3] amounted to 0% and the inhibition at 110 µM under setting [4] came to 6%.

For the molecule `COc1cc2c(cc1O)-c1cc3ccc(OC)c(OC)c3c[n+]1CC2` [Columbamine], the inhibition at 110 µM worked out at 1% under setting [1] and 0% under setting [2].

Consider `COc1cc(O)c2c(=O)c(O[C@@H]3O[C@H](CO)[C@@H](O)[C@H](O)[C@H]3O)c(-c3ccc(O[C@@H]4O[C@H](CO)[C@@H](O)[C@H](O)[C@H]4O)cc3)oc2c1` [Complanatuside], for which the inhibition at 110 µM is 0% under setting [1] and 22% under setting [2].

Regarding `C[C@@H]1O[C@@H](O[C@H]2CC[C@]3(C=O)[C@H]4CC[C@]5(C)[C@@H](C6=CC(=O)OC6)CC[C@]5(O)[C@@H]4CC[C@]3(O)C2)[C@H](O)[C@H](O)[C@H]1O` [Convallatoxin], the inhibition at 110 µM is 2% under setting [1] and 3% under setting [2].

Consider `CC[C@H]1C[C@@H]2CN3CCc4c([nH]c5ccccc45)[C@](C(=O)OC)(C2)[C@H]13` [Coronaridine], for which the inhibition at 110 µM reads like this: under setting [1], 0%; under setting [2], 5%.

Regarding `C[C@H]1[C@H](C)CC[C@]2(C(=O)O)CC[C@]3(C)C(=CC[C@@H]4[C@@]5(C)C[C@@H](O)[C@H](O)C(C)(C)[C@@H]5CC[C@]43C)[C@H]12` [Corosolic acid], the inhibition at 110 µM is, setting by setting: under setting [1], 23%; under setting [2], 34%.

For the molecule `C=C[C@H]1CN2CC[C@]3(C(=O)Nc4ccccc43)[C@@H]2C[C@@H]1/C(=C\OC)C(=O)OC` [Corynoxeine], the inhibition at 110 µM was found to be 0% under setting [1] and 2% under setting [2].

Take `CC[C@@H]1CN2CC[C@]3(C(=O)Nc4ccccc43)[C@@H]2C[C@@H]1/C(=C\OC)C(=O)OC` [Corynoxine B]: the inhibition at 110 µM turned out to be 5% under setting [1] and 20% under setting [2].

`CC[C@@H]1CN2CC[C@@]3(C(=O)Nc4ccccc43)[C@@H]2C[C@@H]1/C(=C\OC)C(=O)OC` [Corynoxine]: the inhibition at 110 µM is 3% under setting [1] and 3% under setting [2].

With `C=C1C(=O)O[C@@H]2/C=C(\C)CC/C=C(\C)CC[C@@H]12` [Costunolide], the inhibition at 110 µM worked out at 0% under setting [1] and 21% under setting [2].

`CN1C(=O)CC[C@H]1c1cccnc1` [Cotinine]: the inhibition at 110 µM was 45% under setting [1] and 16% under setting [2].

For the molecule `O=c1ccc2ccccc2o1` [Coumarin], the inhibition at 110 µM is 12% under setting [1] and 8% under setting [2].

Take `CCN1C[C@]2(COC)CC[C@H](OC)[C@]34C1[C@H]([C@H](OC)[C@H]23)[C@@]1(OC(C)=O)C[C@H](OC)[C@@]2(O)C[C@@H]4[C@@H]1[C@H]2OC(=O)c1ccc(OC)cc1` [Crassicauline A]: the inhibition at 110 µM is, setting by setting: under setting [1], 0%; under setting [2], 0%.

Take `CN(CC(=O)O)C(=N)N` [Creatine]: the inhibition at 110 µM under setting [1] is 4% and the inhibition at 110 µM under setting [2] amounted to 9%.

For the molecule `COc1ccc2c(c1OC)CC1c3c(cc4c(c3-2)OCO4)CCN1C` (stereo not drawn) [Crebanine], the inhibition at 110 µM came out at 0% under setting [1] and 4% under setting [2].

For the molecule `CC(C)(O)/C=C/C(=O)[C@](C)(O)[C@H]1[C@H](O)C[C@@]2(C)[C@@H]3CC=C4[C@@H](C[C@H](O)C(=O)C4(C)C)[C@]3(C)C(=O)C[C@]12C` [Cucurbitacin D], the inhibition at 110 µM by setting is: under setting [1], 10%; under setting [2], 22%.
